Results published in patent US20240277713A1 (Kadmon Corporation, LLC, priority 2022, published 2024).
Marks after values point to notes of the source that are not given here.

System: New Zealand White rabbits
Test: Embryo-fetal developmental toxicity study in New Zealand White rabbits (Example 4);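 further: dams given a detailed clinical exam daily GD 6 to 29, about 4 h after dosing, then laparohysterectomy on GD 29 with external, visceral and skeletal fetal examination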

CC(C)NC(=O)COc1cccc(-c2nc(Nc3ccc4[nH]ncc4c3)c3ccccc3n2)c1 [belumosudil, 2-{3-[4-(1H-indazol-5-ylamino)-2-quinazolinyl]phenoxy}-N-(propan-2-yl) acetamide]
Hair sparse, Forefoot/right, times observed/animals affected (125 mg base/kg/day, GD 0-29): 0/0 | Hair sparse, Forelimb/left, times observed/animals affected (125 mg base/kg/day, GD 0-29): 4/1 | Hair sparse, Hind limb/left, times observed/animals affected (125 mg base/kg/day, GD 0-29): 0/0 | Hair sparse, Inguinal region/right, times observed/animals affected (125 mg base/kg/day, GD 0-29): 4/1 | Hair sparse, Shoulder/left, times observed/animals affected (125 mg base/kg/day, GD 0-29): 2/1 | Hair sparse, Thoracic region, times observed/animals affected (125 mg base/kg/day, GD 0-29): 2/1 | Hair sparse, Ventral surface, times observed/animals affected (125 mg base/kg/day, GD 0-29): 19/1 | Material in pan/bedding, Red, times observed/animals affected (125 mg base/kg/day, GD 0-29): 2/1 | Nail missing, Forefoot/left, times observed/animals affected (125 mg base/kg/day, GD 0-29): 0/0 | Scabbed area, Ear/left, times observed/animals affected (125 mg base/kg/day, GD 0-29): 0/0 | Scabbed area, Nose/muzzle, times observed/animals affected (125 mg base/kg/day, GD 0-29): 0/0 | Skin discolored, Pale, Entire body, times observed/animals affected (125 mg base/kg/day, GD 0-29): 0/0 | Swelling, Nose/muzzle, times observed/animals affected (125 mg base/kg/day, GD 0-29): 0/0 | Swelling, Vulva, times observed/animals affected (125 mg base/kg/day, GD 0-29): 0/0 | Thin, times observed/animals affected (125 mg base/kg/day, GD 0-29): 0/0 | Fetal Body Weight Genders Combined, % Difference From Control (225 mg base/kg/day): −5.76% | Fetal External Malformation: Short Tail, No. Fetuses (incidence) (225 mg base/kg/day): 5 (3.2) | Fetal External Malformation: Short Tail, No. Litters (incidence) (225 mg base/kg/day): 2 (10.5) | Fetal External Malformations, No. Fetuses (incidence) (225 mg base/kg/day): 5 (3.2) | Fetal External Malformations, No. Litters (incidence) (225 mg base/kg/day): 2 (10.5) | Fetal Skeletal Malformations, No. Fetuses (incidence) (225 mg base/kg/day): 19 (12.2) | Fetal Skeletal Malformations, No. Litters (incidence) (225 mg base/kg/day): 10 (52.6) | Fetal Visceral Variations, No. Fetuses (incidence) (225 mg base/kg/day): 12 (7.7) | Fetal Visceral Variations, No. Litters (incidence) (225 mg base/kg/day): 8 (42.1) | Maternal Body Weight Change GD 0-29, % Difference From Control (225 mg base/kg/day): −24.2% | Maternal Body Weight GD 10, % Difference From Control (225 mg base/kg/day): −6.3% | Maternal Body Weight GD 13, % Difference From Control (225 mg base/kg/day): −8.0% | Maternal Body Weight GD 16, % Difference From Control (225 mg base/kg/day): −9.2% | Maternal Body Weight GD 19, % Difference From Control (225 mg base/kg/day): −8.4% | Maternal Body Weight GD 21, % Difference From Control (225 mg base/kg/day): −6.7% | Maternal Food Consumption GD 0-29 (225 mg base/kg/day): 119.80 | Maternal Food Consumption GD 0-29, % Difference From Control (225 mg base/kg/day): −17.8% | Maternal Food Consumption GD 6-10 (225 mg base/kg/day): 61.2^b | Maternal Food Consumption GD 6-19 (225 mg base/kg/day): 78.70 | Maternal Food Consumption GD 6-19, % Difference From Control (225 mg base/kg/day): −49.7% | Maternal Food Consumption GD 19-29 (225 mg base/kg/day): 155.3^b | Mean Fetal Body Weight Females (225 mg base/kg/day): 38.94 g | Mean Fetal Body Weight Genders Combined (225 mg base/kg/day): 38.60 g | Mean Fetal Body Weight Males (225 mg base/kg/day): 38.92 g | Mean Live Litter Size (225 mg base/kg/day): 7.4 | Mean Number of Early Resorptions (225 mg base/kg/day): 1.4^a | Mean Number of Resorptions (Combined) (225 mg base/kg/day): 1.5^a | Mean Postimplantation Loss (225 mg base/kg/day): 17.72 %/Litter | Number Litters with Viable Fetuses GD29 (225 mg base/kg/day): 19 | Number with All Resorptions GD29 (225 mg base/kg/day): 2 | cervical vertebra(e) centra, hemicentra, fetal incidence (225 mg base/kg/day): 2.6% | cervical vertebra(e) centra, hemicentra, litter incidence (225 mg base/kg/day): 21.1% | neural arches (thoracic) fused, fetal incidence (225 mg base/kg/day): 1.9% | neural arches (thoracic) fused, litter incidence (225 mg base/kg/day): 10.5% | neural arches (thoracic) misaligned, fetal incidence (225 mg base/kg/day): 1.3% | neural arches (thoracic) misaligned, litter incidence (225 mg base/kg/day): 10.5% | neural arches (thoracic) misshapen, fetal incidence (225 mg base/kg/day): 2.6% | neural arches (thoracic) misshapen, litter incidence (225 mg base/kg/day): 21.1% | rib(s) branched, fetal incidence (225 mg base/kg/day): 2.6% | rib(s) branched, litter incidence (225 mg base/kg/day): 21.2% | rib(s) fused, fetal incidence (225 mg base/kg/day): 2.6% | rib(s) fused, litter incidence (225 mg base/kg/day): 15.8% | rib(s) misshapen, fetal incidence (225 mg base/kg/day): 1.9% | rib(s) misshapen, litter incidence (225 mg base/kg/day): 15.8% | short tail (entire), fetal incidence (225 mg base/kg/day): 3.2% | short tail (entire), litter incidence (225 mg base/kg/day): 10.5% | sternebra(e) extra, fetal incidence (225 mg base/kg/day): 4.5% | sternebra(e) extra, litter incidence (225 mg base/kg/day): 21.1% | sternebra(e) fused, fetal incidence (225 mg base/kg/day): 4.5% | sternebra(e) fused, litter incidence (225 mg base/kg/day): 31.6% | tail bent (entire), fetal incidence (225 mg base/kg/day): 1.3% | tail bent (entire), litter incidence (225 mg base/kg/day): 5.3% | ureter malpositioned, litter incidence (225 mg base/kg/day): 26.3% | Number Aborted (225 mg base/kg/day, 23 females): 1 | Number Died (225 mg base/kg/day, 23 females): 1 | Number Litters with Viable Fetuses GD29 (225 mg base/kg/day, 23 females): 19 | Number Not Pregnant (225 mg base/kg/day, 23 females): 0 | Number with All Resorptions GD29 (225 mg base/kg/day, 23 females): 2 | Activity decreased, times observed/animals affected (225 mg base/kg/day, GD 0-29): 4/1 | Feces few/absent, times observed/animals affected (225 mg base/kg/day, GD 0-29): 0/0 | Hair discolored, Brown, Anogenital region, times observed/animals affected (225 mg base/kg/day, GD 0-29): 0/0 | Hair discolored, Brown, Ear/left, times observed/animals affected (225 mg base/kg/day, GD 0-29): 0/0 | Hair discolored, Brown, Ear/right, times observed/animals affected (225 mg base/kg/day, GD 0-29): 0/0 | Hair discolored, Brown, Face, times observed/animals affected (225 mg base/kg/day, GD 0-29): 12/2 | Hair discolored, Brown, Hind limb/left, times observed/animals affected (225 mg base/kg/day, GD 0-29): 1/1 | Hair discolored, Red, Anogenital region, times observed/animals affected (225 mg base/kg/day, GD 0-29): 0/0 | Hair discolored, Red, Face, times observed/animals affected (225 mg base/kg/day, GD 0-29): 0/0 | Hair discolored, Red, Forelimb/left, times observed/animals affected (225 mg base/kg/day, GD 0-29): 0/0 | Hair discolored, Red, Thoracic region, times observed/animals affected (225 mg base/kg/day, GD 0-29): 0/0 | Hair discolored, Yellow, Ear/right, times observed/animals affected (225 mg base/kg/day, GD 0-29): 0/0 | Hair discolored, Yellow, Face, times observed/animals affected (225 mg base/kg/day, GD 0-29): 14/2 | Hair sparse, Anogenital region, times observed/animals affected (225 mg base/kg/day, GD 0-29): 0/0 | Hair sparse, Axillary region/left, times observed/animals affected (225 mg base/kg/day, GD 0-29): 3/1 | Hair sparse, Axillary region/right, times observed/animals affected (225 mg base/kg/day, GD 0-29): 2/1 | Hair sparse, Cervical region, times observed/animals affected (225 mg base/kg/day, GD 0-29): 0/0 | Hair sparse, Ear/left, times observed/animals affected (225 mg base/kg/day, GD 0-29): 0/0 | Hair sparse, Ear/right, times observed/animals affected (225 mg base/kg/day, GD 0-29): 0/0 | Hair sparse, Forefoot/left, times observed/animals affected (225 mg base/kg/day, GD 0-29): 3/1 | Hair sparse, Forefoot/right, times observed/animals affected (225 mg base/kg/day, GD 0-29): 5/2 | Hair sparse, Forelimb/left, times observed/animals affected (225 mg base/kg/day, GD 0-29): 0/0 | Hair sparse, Hind limb/left, times observed/animals affected (225 mg base/kg/day, GD 0-29): 8/1 | Hair sparse, Inguinal region/right, times observed/animals affected (225 mg base/kg/day, GD 0-29): 0/0 | Hair sparse, Shoulder/left, times observed/animals affected (225 mg base/kg/day, GD 0-29): 0/0 | Hair sparse, Thoracic region, times observed/animals affected (225 mg base/kg/day, GD 0-29): 1/1 | Hair sparse, Ventral surface, times observed/animals affected (225 mg base/kg/day, GD 0-29): 0/0 | Material in pan/bedding, Red, times observed/animals affected (225 mg base/kg/day, GD 0-29): 2/2 | Nail missing, Forefoot/left, times observed/animals affected (225 mg base/kg/day, GD 0-29): 0/0 | Scabbed area, Ear/left, times observed/animals affected (225 mg base/kg/day, GD 0-29): 0/0 | Scabbed area, Nose/muzzle, times observed/animals affected (225 mg base/kg/day, GD 0-29): 0/0 | Skin discolored, Pale, Entire body, times observed/animals affected (225 mg base/kg/day, GD 0-29): 11/1 | Swelling, Nose/muzzle, times observed/animals affected (225 mg base/kg/day, GD 0-29): 0/0 | Swelling, Vulva, times observed/animals affected (225 mg base/kg/day, GD 0-29): 2/1 | Thin, times observed/animals affected (225 mg base/kg/day, GD 0-29): 38/5 | NOAEL for maternal and developmental toxicity (pregnant rabbits): 50 mg base/kg/day | doses at which embryo-fetal effects were observed (abortion, post-implantation loss, malformations, decreased fetal body weight) (pregnant rabbits, oral): ≥ 50 mg/kg/day | doses at which maternal toxicity (body weight loss and mortality) was observed (pregnant rabbits, oral, organogenesis): ≥ 125 mg/kg/day
